Measurements taken from US8901038B2, “Biphenyl-substituted cyclic ketoenols” (Bayer CropScience AG, priority 2010, dated 2014).

Test system: greenhouse red spider mite (Tetranychus urticae)
Assay: Tetranychus test; OP-resistant (TETRUR spray treatment)
Assay type: in vivo
Conditions: application rate 100 g/ha; bean leaf discs sprayed; after 6 days
Experimental: Tetranychus Test; OP-Resistant (TETRUR Spray Treatment)
(§1) • Solvents: 78.0 parts by weight of acetone • 1.5 parts by weight of dimethylformamide • Emulsifier: 0.5 part by weight of alkylaryl polyglycol ether
To produce a suitable preparation of active compound, 1 part by weight of active compound is mixed with the stated amounts of solvent and emulsifier, and the concentrate is diluted with emulsifier-containing water to the desired concentration. Discs of bean leaves (Phaseolus vulgaris), which are infested by all stages of the greenhouse red spider mite (Tetranychus urticae) are sprayed with an active compound preparation of the desired concentration.
After 6 days, the effect in % is determined. 100% means that all spider mites have been killed; 0% means that none of the spider mites have been killed.
In the case of Cc1ccc(-c2ccc(F)cc2)c(Cl)c1C1=C(O)C2(CCOCC2)NC1=O [Example I-1-a-12], the “efficacy (spider mites killed)” value is reported as 100%.
For COC1CCC2(CC1)NC(=O)C(c1c(Cl)ccc(-c3ccc(F)cc3)c1C)=C2O (stereo not shown) [Example I-1-a-14], the “efficacy (spider mites killed)” value was 90%.
With CCc1c(-c2ccc(F)cc2)ccc(C)c1C1=C(O)C2(CCOCC2)NC1=O [Example I-1-a-10] the “efficacy (spider mites killed)” value was 100%.
For Cc1c(-c2ccc(F)cc2)ccc(Cl)c1C1=C(O)C2(CCOCC2)NC1=O [Example I-1-a-13], the “efficacy (spider mites killed)” value was 100%.
In the case of CCON1CCC2(CC1)NC(=O)C(c1c(CC)ccc(-c3ccc(Cl)cc3)c1CC)=C2O [Example I-1-a-25], the “efficacy (spider mites killed)” value is reported as 100%.
For Cc1ccc(-c2ccc(Cl)cc2)c(Cl)c1C1=C(O)C2(CCOCC2)NC1=O [Example I-1-a-11], the “efficacy (spider mites killed)” value was 100%.

Test system: Meloidogyne incognita
Assay: Meloidogyne incognita test (MELGIN)
Assay type: in vivo
Conditions: application rate 20 ppm; lettuce roots; after 14 days
Experimental: Meloidogyne incognita Test (MELGIN)
as §1
To produce a suitable preparation of active compound, 1 part by weight of active compound is mixed with the stated amounts of solvents and emulsifier, and the concentrate is diluted with water to the desired concentration. Containers are filled with sand, solution of active compound, Meloidogyne incognita egg/larvae suspension and lettuce seeds. The lettuce seeds germinate and the plants develop. On the roots, galls are formed. After 14 days, the nematicidal activity is determined in % by the formation of galls. 100% means that no galls are found; 0% means that the number of galls on the treated plants corresponds to that of the untreated controls.
In the case of Cc1ccc(-c2ccc(Cl)cc2)c(Cl)c1C1=C(O)C2(CCOCC2)NC1=O [Example I-1-a-11], the “efficacy (nematicidal activity by formation of galls)” value is reported as greater than 80%.

Test system: green peach aphid (Myzus persicae)
Assay: Myzus test (MYZUPE spray treatment)
Assay type: in vivo
Conditions: application rate 500 g/ha; Chinese cabbage leaf discs sprayed; after 6 days
Experimental: Myzus Test (MYZUPE Spray Treatment)
• Solvents: 78 parts by weight of acetone • 1.5 parts by weight of dimethylformamide • Emulsifier: 0.5 part by weight of alkylaryl polyglycol ether
To produce a suitable preparation of active compound, 1 part by weight of active compound is mixed with the stated amounts of solvent and emulsifier, and the concentrate is diluted with emulsifier-containing water to the desired concentration. Discs of Chinese cabbage (Brassica pekinensis) which are infested by all stages of the green peach aphid (Myzus persicae) are sprayed with an active compound preparation of the desired concentration. After 6 days, the effect in % is determined. 100% means that all aphids have been killed; 0% means that none of the aphids have been killed.
With Cc1ccc(-c2ccc(F)cc2)c(Cl)c1C1=C(O)C2(CCOCC2)NC1=O [Example I-1-a-12] the “efficacy (aphids killed)” value was 100%.
In the case of COC1CCC2(CC1)NC(=O)C(c1c(Cl)ccc(-c3ccc(F)cc3)c1C)=C2O (stereo not shown) [Example I-1-a-14], the “efficacy (aphids killed)” value is reported as 100%.
For CCc1c(-c2ccc(F)cc2)ccc(C)c1C1=C(O)C2(CCOCC2)NC1=O [Example I-1-a-10], the “efficacy (aphids killed)” value was 100%.
For O=C1NC2(CCOCC2)C(O)=C1c1c(Cl)ccc(-c2ccc(Cl)cc2)c1Cl [Example I-1-a-2], the “efficacy (aphids killed)” value was 100%.
With Cc1c(-c2ccc(F)cc2)ccc(Cl)c1C1=C(O)C2(CCOCC2)NC1=O [Example I-1-a-13] the “efficacy (aphids killed)” value was 100%.
With CCON1CCC2(CC1)NC(=O)C(c1c(CC)ccc(-c3ccc(Cl)cc3)c1CC)=C2O [Example I-1-a-25] the “efficacy (aphids killed)” value was 100%.
With Cc1ccc(-c2ccc(Cl)cc2)c(Cl)c1C1=C(O)C2(CCOCC2)NC1=O [Example I-1-a-11] the “efficacy (aphids killed)” value was 100%.

Test system: caterpillars of the armyworm (Spodoptera frugiperda)
Assay: Spodoptera frugiperda test (SPODFR spray treatment)
Assay type: in vivo
Conditions: application rate 500 g/ha; maize leaf discs sprayed; after 7 days
Experimental: Spodoptera frugiperda Test (SPODFR Spray Treatment)
as §1
To produce a suitable preparation of active compound, 1 part by weight of active compound is mixed with the stated amounts of solvent and emulsifier, and the concentrate is diluted with emulsified water to the desired concentration. Discs of maize leaves (Zea mays) are sprayed with an active compound preparation of the desired concentration and, after drying, populated with caterpillars of the armyworm (Spodoptera frugiperda).
After 7 days, the effect in % is determined. 100% means that all caterpillars have been killed; 0% means that none of the caterpillars have been killed.
With Cc1ccc(-c2ccc(F)cc2)c(Cl)c1C1=C(O)C2(CCOCC2)NC1=O [Example I-1-a-12] the “efficacy (caterpillars killed)” value was 100%.
In the case of COC1CCC2(CC1)NC(=O)C(c1c(Cl)ccc(-c3ccc(F)cc3)c1C)=C2O (stereo not shown) [Example I-1-a-14], the “efficacy (caterpillars killed)” value is reported as 100%.
In the case of O=C1NC2(CCOCC2)C(O)=C1c1c(Cl)ccc(-c2ccc(Cl)cc2)c1Cl [Example I-1-a-2], the “efficacy (caterpillars killed)” value is reported as 100%.
For Cc1c(-c2ccc(F)cc2)ccc(Cl)c1C1=C(O)C2(CCOCC2)NC1=O [Example I-1-a-13], the “efficacy (caterpillars killed)” value was 100%.
In the case of Cc1ccc(-c2ccc(Cl)cc2)c(Cl)c1C1=C(O)C2(CCOCC2)NC1=O [Example I-1-a-11], the “efficacy (caterpillars killed)” value is reported as 83%.

Test system: larvae of the mustard beetle (Phaedon cochleariae)
Assay: Phaedon test (PHAECO spray treatment)
Assay type: in vivo
Conditions: application rate 500 g/ha; Chinese cabbage leaf discs sprayed; after 7 days
Experimental: Phaedon Test (PHAECO Spray Treatment)
as §1
To produce a suitable preparation of active compound, one part by weight of active compound is mixed with the stated amounts of solvents and emulsifier, and the concentrate is diluted with emulsifier-containing water to the desired concentration. […].
After 7 days, the effect in % is determined. 100% means that all beetle larvae have been killed; 0% means that none of the beetle larvae have been killed.
In the case of Cc1ccc(-c2ccc(F)cc2)c(Cl)c1C1=C(O)C2(CCOCC2)NC1=O [Example I-1-a-12], the “efficacy (beetle larvae killed)” value is reported as 100%.
With COC1CCC2(CC1)NC(=O)C(c1c(Cl)ccc(-c3ccc(F)cc3)c1C)=C2O (stereo not shown) [Example I-1-a-14] the “efficacy (beetle larvae killed)” value was 100%.
For CCON1CCC2(CC1)NC(=O)C(c1c(CC)ccc(-c3ccc(Cl)cc3)c1CC)=C2O [Example I-1-a-25], the “efficacy (beetle larvae killed)” value was 100%.

Test system: not given
Assay: not given
Conditions: not given
Description: Use is made of leaves which, fully developed, are cut from apple trees of the cultivar Golden Delicious.
Only the cuticles, free from hairs and stoma, of the upper sides of the leaves are then used. They are washed repeatedly alternating with water and a buffer solution of pH 7. The clean cuticles obtained are then mounted on Teflon plates and smoothed and dried with a gentle stream of air.
In the next step, the cuticle membranes obtained in this manner are placed into stainless steel diffusion cells (=transport chambers) for membrane transport studies. To this end, the cuticles are placed with a pincette into the centre of the edges, coated with silicone fat, of the diffusion cells and closed with a ring, which is also treated with fat. The arrangement is chosen such that the morphological outside of the cuticles is facing outwards, i.e. exposed to air, whereas the original inside is facing the interior of the diffusion cell.
The diffusion cells are filled with a 30% strength ethylene glycol/water solution. To determine the penetration, in each case 10 μl of the spray liquor of the composition below are applied to the outside of the cuticles. The spray liquor is prepared using local tap water of medium hardness.
After the application of the spray liquors, the water is allowed to evaporate and the chambers are inverted and placed into thermostatic tubs in which temperature and atmospheric humidity over the cuticles can be adjusted using a gentle stream of air onto the cuticles with the spray coating (35° C., 60% rh).
For CCON1CCC2(CC1)NC(=O)C(c1c(CC)ccc(-c3ccc(Cl)cc3)c1CC)=C2O [Example I-1-a-25], the “Penetration after 48 h/% EC + AS (0.7 g/l)” value was 2%, the “Penetration after 48 h/% EC + RME (1 g/l)” value was 4% and the “Penetration after 48 h/% EC + RME (1 g/l) + AS (0.7 g/l)” value was 10%.

Test system: Lucilia cuprina larvae
Assay: Lucilia cuprina test (LUCICU)
Assay type: in vivo
Conditions: application rate 100 ppm; treated horse meat; after 2 days
Experimental: Lucilia cuprina test (LUCICU)
(§2) • Solvent: Dimethyl sulphoxide
To produce a suitable preparation of active compound, 10 mg of active compound are mixed with 0.5 ml of dimethyl sulphoxide and the concentrate is diluted with water to the desired concentration. Containers containing horse meat treated with the active compound preparation of the desired concentration are populated with about 20 Lucilia cuprina larvae.
After 2 days, the kill in % is determined. 100% means that all larvae have been killed; 0% means that none of the larvae have been killed.
For Cc1ccc(-c2ccc(F)cc2)c(Cl)c1C1=C(O)C2(CCOCC2)NC1=O [Example I-1-a-12], the “efficacy (kill of larvae)” value was 100%.
With COC1CCC2(CC1)NC(=O)C(c1c(Cl)ccc(-c3ccc(F)cc3)c1C)=C2O (stereo not shown) [Example I-1-a-14] the “efficacy (kill of larvae)” value was 100%.
For CCc1c(-c2ccc(F)cc2)ccc(C)c1C1=C(O)C2(CCOCC2)NC1=O [Example I-1-a-10], the “efficacy (kill of larvae)” value was 90%.
With O=C1NC2(CCOCC2)C(O)=C1c1c(Cl)ccc(-c2ccc(Cl)cc2)c1Cl [Example I-1-a-2] the “efficacy (kill of larvae)” value was 100%.
For Cc1c(-c2ccc(F)cc2)ccc(Cl)c1C1=C(O)C2(CCOCC2)NC1=O [Example I-1-a-13], the “efficacy (kill of larvae)” value was 90%.
For Cc1ccc(-c2ccc(Cl)cc2)c(Cl)c1C1=C(O)C2(CCOCC2)NC1=O [Example I-1-a-11], the “efficacy (kill of larvae)” value was 100%.

Test system: Boophilus microplus
Assay: Boophilus microplus test (BOOPMI injection)
Assay type: in vivo
Conditions: application rate 20 μg/animal; injection into the abdomen; after 7 days
Experimental: Boophilus microplus Test (BOOPMI Injection)
as §2
To produce a suitable preparation of active compound, 10 mg of active compound are mixed with 0.5 ml of solvent and the concentrate is diluted with solvent to the desired concentration. The solution of active compound is injected into the abdomen (Boophilus microplus) and the animals are transferred into dishes and stored in a climatized room. The efficacy is monitored for deposition of fertile eggs.
After 7 days, the effect in % is determined. 100% means that none of the ticks has laid any fertile eggs.
With Cc1ccc(-c2ccc(F)cc2)c(Cl)c1C1=C(O)C2(CCOCC2)NC1=O [Example I-1-a-12] the “efficacy (deposition of fertile eggs)” value was 95%.
For COC1CCC2(CC1)NC(=O)C(c1c(Cl)ccc(-c3ccc(F)cc3)c1C)=C2O (stereo not shown) [Example I-1-a-14], the “efficacy (deposition of fertile eggs)” value was 95%.
In the case of CCc1c(-c2ccc(F)cc2)ccc(C)c1C1=C(O)C2(CCOCC2)NC1=O [Example I-1-a-10], the “efficacy (deposition of fertile eggs)” value is reported as 80%.
In the case of O=C1NC2(CCOCC2)C(O)=C1c1c(Cl)ccc(-c2ccc(Cl)cc2)c1Cl [Example I-1-a-2], the “efficacy (deposition of fertile eggs)” value is reported as 95%.
With Cc1c(-c2ccc(F)cc2)ccc(Cl)c1C1=C(O)C2(CCOCC2)NC1=O [Example I-1-a-13] the “efficacy (deposition of fertile eggs)” value was 80%.
With Cc1ccc(-c2ccc(Cl)cc2)c(Cl)c1C1=C(O)C2(CCOCC2)NC1=O [Example I-1-a-11] the “efficacy (deposition of fertile eggs)” value was 90%.
